A word on the IC50: it is the point on the concentration scale where inhibition reaches its midpoint. Read a high IC50 as weaker potency. A word on the solubility: it is the concentration that dissolves in the medium under given conditions.

≈ marks a conversion by molar mass, not a printed value.

Drawing on ChEMBL document CHEMBL1138419 (Bioorg Med Chem Lett, 2007), this text covers IC50 and solubility for 13 compounds.

For data set [1], the target named is cGMP-specific 3',5'-cyclic phosphodiesterase (Bos taurus, UniProt Q28156). Put plainly: Inhibition of bovine PDE5 after 24 hrs by HTRF. A general note: In TR-FRET formats the signal depends on donor and acceptor labels being close together.
The nature of data set [2]: Aqueous solubility in PBS at pH 7.4. The format is physicochemical.

The compound `Cc1cccc(N2CC(=O)N3[C@H](c4ccc5c(c4)OCO5)c4[nH]c5ccccc5c4C[C@@H]3C2=O)c1` showed an IC50 in data set [1] of 68 nM. In data set [1], `O=C1[C@H]2Cc3c([nH]c4ccccc34)[C@@H](c3ccc4c(c3)OCO4)N2C(=O)CN1c1cccs1` showed an IC50 of 57 nM. In data set [2], `O=C1[C@H]2Cc3c([nH]c4ccccc34)[C@@H](c3ccc4c(c3)OCO4)N2C(=O)CN1c1cncnc1` showed a solubility of 25 µM (≈ 11.3 µg/mL). The IC50 in data set [1] turned out to be 53 nM. In the case of `CCCCc1ccc(N2CC(=O)N3[C@H](c4ccc5c(c4)OCO5)c4[nH]c5ccccc5c4C[C@@H]3C2=O)cc1`, in data set [1], the IC50 was determined as 152 nM. In data set [1], `O=C1[C@H]2Cc3c([nH]c4ccccc34)[C@@H](c3ccc4c(c3)OCO4)N2C(=O)CN1c1ccsc1` came in with an IC50 of 18 nM. Take `O=C1[C@H]2Cc3c([nH]c4ccccc34)[C@@H](c3ccc4c(c3)OCO4)N2C(=O)CN1c1ccc([N+](=O)[O-])cc1`: 122 nM corresponded to half-maximal inhibition in data set [1] (IC50).

Take `O=C1[C@H]2Cc3c([nH]c4ccccc34)[C@@H](c3ccc4c(c3)OCO4)N2C(=O)CN1c1cccc(Cl)c1`: the IC50 in data set [1] is 141 nM. In the case of `O=C1[C@H]2Cc3c([nH]c4ccccc34)[C@@H](c3ccc4c(c3)OCO4)N2C(=O)CN1c1ccc(C(F)(F)F)cc1`, the IC50 in data set [1] came to 377 nM. For `O=C1[C@H]2Cc3c([nH]c4ccccc34)[C@@H](c3ccc4c(c3)OCO4)N2C(=O)CN1c1cccnc1`, the concentration in solution in data set [2] (solubility) came to 33 µM (≈ 14.9 µg/mL). In data set [1], this compound came in with an IC50 of 28 nM.

The compound `O=C1[C@H]2Cc3c([nH]c4ccccc34)[C@@H](c3ccc4c(c3)OCO4)N2C(=O)CN1c1ccccc1` displayed a solubility in data set [2] of 2.4 µM (≈ 1.08 µg/mL). Also, in data set [1], half-maximal inhibition (IC50) required 91 nM. For the compound `O=C1[C@H]2Cc3c([nH]c4ccccc34)[C@@H](c3ccc4c(c3)OCO4)N2C(=O)CN1c1ccc(Cl)cc1`, in data set [1], the IC50 was 134 nM.

On to `COc1ccc(N2CC(=O)N3[C@H](c4ccc5c(c4)OCO5)c4[nH]c5ccccc5c4C[C@@H]3C2=O)cc1`, for which the IC50 in data set [1] was determined as 16 nM. As for `CN1CC(=O)N2[C@H](c3ccc4c(c3)OCO4)c3[nH]c4ccccc4c3C[C@@H]2C1=O`, the concentration in solution in data set [2] (solubility) was 9.7 µM (≈ 3.78 µg/mL).
